In patent US20190209451A1, “SOLUBILIZING AGENTS FOR UV FILTERS IN COSMETIC FORMULATIONS” (BASF SE, priority 2016, published 2019):

Assay: Determination of the solubility of organic UV filters in levulynates used as solvents
Format: physicochemical
Settings: UV filter dissolved in the named levulynate as solvent; stirred seven days at 25° C.; UV/Vis-spectrometry
Procedure: Afterwards 0.02 g (1%) of the respective substance are weighed and added to the solvent. The vial is placed into a thermostated waterbath, where the suspension/solution is stirred during seven days at 25° C. If the amount of substance put into the solvent is fully soluble, additional substance is added until precipitation can be observed. After seven days, the sample is centrifuged for 30 minutes at 13000 rpm. The supernatant is transferred into a small beaker. In case the sample is still turbid, it is filtered through a 0.2 μm non-steril Membrex 25 PET filter. Clear solutions must not be filtered. When a clear solution is obtained, the concentration of the substance is determined with UV/Vis-spectrometry. For this purpose the sample may be diluted with a suitable solvent or, in case of lower concentrations, may be measured as is. If the test solvent is water, further dilution is done with water. If the test solvent is volatile, the same solvent is taken for dilution. If the test solvent is a cosmetic emollient, dioxane is used for further dilution. In order to evaluate the concentration from the UV-spectroscopic results, the extinction coefficient is needed, which is determined independently with a solvent of similar polarity like that one used for dilution of the saturated solutions. The solubility can be calculated using the equation of the Lambert-Beer-Law: [formula] • c=concentration (mol/l) • E=extinction measured at λ max. • f=dilution factor • ε=extinction coefficient at λmax [I/(mol/cm)] • d=optical pathlength [cm] Due to spectra overlapping the solubility of some crystalline UV filters in liquid UV filters cannot be determined exactly by UV spectroscopy. In this case solubilities are determined via HPLC with reversed phase C-18 columns and UV-detectors.

Structure (SMILES) | Solubility of Bis-Ethylhexyloxyphenol Methoxyphenyl Triazine | Solubility of Diethylamino Hydroxybenzoyl Hexyl Benzoate | Solubility of Ethylhexyl Triazone
CCCCCCCCCCCCOC(=O)CCC(C)=O [C12-Levulynate, levulinic acid dodecyl ester] | 3.0 w/% | 29.1 w/% | 11.7 w/%
CCCCCCCCOC(=O)CCC(C)=O [C8-levulynate, levulinic acid octyl ester] | 10.4 w/% | 42.6 w/% | 25.1 w/%
CCCCC(CC)COC(=O)CCC(C)=O (centres unmarked) [2-Ethylhexyl-levulynate] | 6.5 w/% | 33.4 w/% | 
CCCCCCCCCCOC(=O)CCC(C)=O [C10-levulynate, levulinic acid decyl ester] | 9.1 w/% | 31.0 w/% | 21.0 w/%
